According to the supplement of paper PMC10307832:

Columns and labels:
Test in all cases: relative viability (nuclei count vs DMSO), 5 days (fraction); higher = more cells survive
[1] = compound: C[C@]12O[C@H](C[C@]1(O)CO)n1c3ccccc3c3c4c(c5c6ccccc6n2c5c31)CNC4=O [Lestaurtinib] + Nc1ncn([C@H]2C[C@H](O)[C@@H](CO)O2)c(=O)n1 [Decitabine] (partner 2 µM)
In short: (§1)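 Each reported value is a median over duplicate plates. It expresses relative viability: treated-well nuclei count divided by vehicle-well nuclei count. Lung cancer cell lines in 1536-well plates were dosed by pin tool a day after seeding, alone with one drug or with a fixed anchor-drug dose plus five library-drug doses (not always all listed) in √10 steps, and nuclei were counted after 5 days.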

[2] = compound: C1/C(=C\C2=CC=CS2)/C(=O)/C(=C/C3=CC=CS3)/C1 + CS(=O)(=O)N1CCN(Cc2cc3nc(-c4cccc5[nH]ncc45)nc(N4CCOCC4)c3s2)CC1 [Pictilisib] (partner 1 µM)
In short: as §1

[3] = compound: C[C@]12O[C@H](C[C@]1(O)CO)n1c3ccccc3c3c4c(c5c6ccccc6n2c5c31)CNC4=O [Lestaurtinib] + CS(=O)(=O)N1CCN(Cc2cc3nc(-c4cccc5[nH]ncc45)nc(N4CCOCC4)c3s2)CC1 [Pictilisib] (partner 1 µM)
In short: as §1

[4] = compound: C1/C(=C\C2=CC=CS2)/C(=O)/C(=C/C3=CC=CS3)/C1 + CS(=O)(=O)CCNCc1ccc(-c2ccc3ncnc(Nc4ccc(OCc5cccc(F)c5)c(Cl)c4)c3c2)o1 [Lapatinib] (partner 2 µM)
In short: as §1

Row | Cell Line | relative viability ([1]; first compound 0.005 µM) | relative viability ([1]; first compound 0.01581 µM) | relative viability ([1]; first compound 0.05 µM) | relative viability ([1]; first compound 0.1581 µM) | relative viability ([1]; first compound 0.5 µM) | relative viability ([2]; first compound 0.2 µM) | relative viability ([2]; first compound 0.6325 µM) | relative viability ([2]; first compound 2 µM) | relative viability ([2]; first compound 6.325 µM) | relative viability ([2]; first compound 20 µM) | relative viability ([3]; first compound 0.005 µM) | relative viability ([3]; first compound 0.01581 µM) | relative viability ([3]; first compound 0.05 µM) | relative viability ([3]; first compound 0.1581 µM) | relative viability ([3]; first compound 0.5 µM) | relative viability ([4]; first compound 0.2 µM) | relative viability ([4]; first compound 0.6325 µM) | relative viability ([4]; first compound 2 µM) | relative viability ([4]; first compound 6.325 µM) | relative viability ([4]; first compound 20 µM)
1 | NCI-H650 | 0.332 | 0.362 | 0.353 | 0.335 | 0.326 | 0.998 | 0.801 | 0.834 | 0.821 | 0.938 | 0.816 | 0.818 | 0.63 | 0.399 | 0.332 | 0.944 | 1.17 | 1.05 | 0.925 | 0.989
2 | NCI-H661 | 0.552 | 0.59 | 0.52 | 0.502 | 0.33 | 0.398 | 0.524 | 0.525 | 0.373 | 0.398 | 0.35 | 0.461 | 0.411 | 0.352 | 0.336 | 0.465 | 0.49 | 0.507 | 0.475 | 0.516
3 | NCI-H727 | 0.957 | 0.87 | 0.882 |  | 0.579 | 0.328 | 0.419 | 0.609 | 0.21 | 0.455 | 0.396 | 0.566 | 0.278 | 0.409 | 0.229 | 0.735 | 0.877 | 1.02 | 0.701 | 0.752
4 | NCI-H838 | 0.508 | 0.559 | 0.501 | 0.399 | 0.161 | 0.456 | 0.511 | 0.416 | 0.413 | 0.436 | 0.492 | 0.479 | 0.378 | 0.309 | 0.169 | 1.01 | 0.889 | 0.994 | 0.926 | 0.866
5 | NCI-H1355 | 0.389 | 0.349 | 0.329 | 0.311 | 0.344 | 0.519 | 0.401 | 0.411 | 0.391 | 0.474 | 0.412 | 0.363 | 0.314 | 0.389 | 0.273 | 0.964 | 0.951 | 1.04 | 0.908 | 0.911
6 | NCI-H1395 | 0.778 | 0.765 | 0.774 | 0.684 | 0.453 | 0.618 | 0.73 | 0.67 | 0.448 | 0.581 | 0.597 | 0.542 | 0.536 | 0.463 | 0.405 | 1.04 | 1.13 | 1.11 | 0.886 | 1.15
7 | NCI-H1437 | 0.546 | 0.649 | 0.645 | 0.626 | 0.636 | 0.437 | 0.402 | 0.406 | 0.404 | 0.36 | 0.466 | 0.491 | 0.375 | 0.245 | 0.14 | 0.751 | 0.788 | 0.791 | 0.748 | 0.692
8 | NCI-H1650 | 0.441 | 0.623 | 0.457 | 0.506 | 0.54 | 0.618 | 0.584 | 0.672 | 0.567 | 0.598 | 0.594 | 0.662 | 0.566 | 0.463 | 0.153 | 0.654 | 0.735 | 0.961 | 0.748 | 0.803
